Results published in patent US10265298B2, “Method of increasing the bioavailability of silybin” (Macau University of Science and Technology, priority 2017, dated 2019).

Settings: in vivo, po; for Cmax of free silybin / mean Cmax of total silybin (parent plus sulfate and glucuronide conjugates): rat
Experimental: The rats were randomly divided into three groups with six rats in each group. The oral administration dosages of silybin were 10 and 50 mg/10 ml/kg body weight without or with baicalein/tangeretin at the same dosage. Before experimentation, the animals were fasted for 24 hours with water ad libitum, and maintained at a temperature of 21° C. with 70% relative humidity and a 12 hour light/dark cycle. After oral administration, tail vein blood samples were collected (0.1 ml) into heparinized 0.65 ml micro-centrifuge tubes at the following time intervals: 0, 15, 30, 45, 60, 90, 120, 240, 360, 480, and 720 minutes. The blood samples then were immediately centrifuged at 4,000 rotations per minute (rpm) for 15 minutes at 4 degrees Celsius (° C.), and the resulting plasma was collected and stored at −80° C. until analysis.
To estimate the concentration of total glucuronide and sulfate conjugates of silybin in bio-samples including plasma, cell, and media, enzymatic hydrolysis with […] (8000 U/ml) and sulfatase (80 units per milliliter (U/ml)) was performed with 10 microliter (μl) aliquot of samples. The reactions were terminated by the addition of 40 μl of ice-cold acetonitrile containing 1% glacial acetic acid and internal standard NG (25 ng/ml). After centrifugation at 13,500 rotations per minute (rpm) for 15 minutes at 4° C., the supernatants were evaporated to dryness by nitrogen evaporator, and the residue was reconstituted with 60 μl of 30% methanol in water containing 1% ascorbic acid. An aliquot of 10 μl of the final solution was injected into LC-MS/MS for analysis. The completion of de-conjugation reaction was monitored by mass spectrometry. In parallel, 10 μl aliquots of samples without enzymes were treated with 40 μl of ice-cold acetonitrile containing 1% glacial acetic acid and naringenin (NG) (25 nanogram per milliliter (ng/ml)) to determine the concentration of free silybin. The total concentrations of glucuronides and sulfates in samples were estimated from the difference between the amount of silybin released by incubation with both glucuronidase and sulfatase and the amount of free silybin without enzymes incubation.
The analysis of silybin and total concentrations of glucuronides and sulfates was performed on an Agilent HP 1100 LC-MS system (Agilent, CA). A Waters ACQUITY UPLC® BEH C18 Column (1.7 μm, 2.1×50 mm, Waters Corp., Ireland) was used for detection with a C18 Security Guard cartridge (4×2.0 mm i.d., Phenomenex, Torrance, Calif.). Silybin A and silybin B were well separated using optimized gradient elution with methanol (mobile phase B) and 0.1% formic acid in water (mobile phase A) as mobile phase at a flow rate of 0.4 ml/min with a run time of 10 minutes. The gradient employed was as follows (time: mobile phase B percentage): 0 min: 25%, 6 minutes: 40%, 6.5 minutes: 25%.
Pharmacokinetic parameters including half-life (T1/2), volume of distribution (Vd), oral clearance (CL/F), and area under the concentration-time curve (AUC) were calculated using the software package PK Solutions 2.0.2 (SUMMIT Co., Ashland, Ohio, USA) with non-compartment analysis. One-way analysis of variance (ANOVA) was used when multiple groups were compared and the Bonferroni post hoc correction was used to accommodate multiple testing. The two-sided unpaired Student's t-test was used when treatments or differences between two groups were compared. […] During all statistical analyses, differences in group sizes were considered in the calculations. Differences were considered statistically significant when P<0.05. All data is presented as geometric mean±S.D.

| SMILES | fraction existing as conjugates in rat plasma | Cmax of free silybin | mean Cmax of total silybin (parent plus sulfate and glucuronide conjugates) |
| --- | --- | --- | --- |
| COc1cc([C@H]2Oc3cc([C@H]4Oc5cc(O)cc(O)c5C(=O)[C@@H]4O)ccc3O[C@@H]2CO)ccc1O [silybin A] | about 97% | 26 ± 13 ng/mL | 1109 ± 158 ng/mL |
| COc1cc([C@@H]2Oc3cc([C@H]4Oc5cc(O)cc(O)c5C(=O)[C@@H]4O)ccc3O[C@H]2CO)ccc1O [silybin B] | ~99% | 16 ± 5 ng/mL | 2478 ± 284 ng/mL |
